Activity calls are given as the source filed them.
Columns and labels:
[1] = HEK-293T cell viability reduction – luminescence, B-cell screen hits, cytotoxicity control for BCR NF-kB inhibitor project, dose response (AID 489021); type: functional, cell-based;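 note: HEK-293T cells carrying an NF-kB luciferase reporter; cells exposed to compound for about 14 hours before viability readout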
Estrogen receptor beta = Estrogen receptor beta (Homo sapiens, UniProt Q92731); experiment: blockers of SRC-3 recruitment to ERβ – biochemical, ELISA, streptavidin-HRP readout, orthogonal assay, confirmation (AID 1060)
Sequence of Estrogen receptor beta (Q92731 whole entry): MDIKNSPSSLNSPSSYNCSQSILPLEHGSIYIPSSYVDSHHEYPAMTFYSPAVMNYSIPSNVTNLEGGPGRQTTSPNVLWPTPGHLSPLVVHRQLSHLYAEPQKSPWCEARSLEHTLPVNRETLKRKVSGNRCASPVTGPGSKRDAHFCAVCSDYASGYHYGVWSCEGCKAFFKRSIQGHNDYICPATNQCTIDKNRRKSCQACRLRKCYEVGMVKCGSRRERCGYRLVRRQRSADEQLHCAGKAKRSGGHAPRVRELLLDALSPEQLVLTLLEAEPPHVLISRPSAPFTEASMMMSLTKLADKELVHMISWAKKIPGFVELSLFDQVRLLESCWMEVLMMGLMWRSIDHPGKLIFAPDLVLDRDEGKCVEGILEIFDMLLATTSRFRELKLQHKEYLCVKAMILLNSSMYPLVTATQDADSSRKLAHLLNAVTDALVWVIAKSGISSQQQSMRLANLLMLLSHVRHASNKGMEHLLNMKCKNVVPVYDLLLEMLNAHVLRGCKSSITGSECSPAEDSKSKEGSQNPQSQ

[2] = target: Induced myeloid leukemia cell differentiation protein Mcl-1 (Homo sapiens, UniProt Q07820); type: functional
Sequence of Induced myeloid leukemia cell differentiation protein Mcl-1 (Q07820 whole entry): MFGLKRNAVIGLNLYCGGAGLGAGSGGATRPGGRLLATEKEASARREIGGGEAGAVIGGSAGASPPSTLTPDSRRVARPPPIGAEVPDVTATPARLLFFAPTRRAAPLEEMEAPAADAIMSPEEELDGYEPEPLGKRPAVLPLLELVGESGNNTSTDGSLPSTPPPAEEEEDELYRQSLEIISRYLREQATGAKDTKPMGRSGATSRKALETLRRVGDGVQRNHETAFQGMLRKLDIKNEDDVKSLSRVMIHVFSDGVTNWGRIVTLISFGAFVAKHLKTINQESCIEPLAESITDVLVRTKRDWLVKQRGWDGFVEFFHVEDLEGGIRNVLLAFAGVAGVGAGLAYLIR

Genome polyprotein = Genome polyprotein (dengue virus type 2, UniProt P29990); experiment: flavivirus cap methylation enzyme inhibition – biochemical, confirmation dose response, primary screen (AID 588689); type: functional
Sequence of Genome polyprotein (P29990 2492-3391 limits assumed): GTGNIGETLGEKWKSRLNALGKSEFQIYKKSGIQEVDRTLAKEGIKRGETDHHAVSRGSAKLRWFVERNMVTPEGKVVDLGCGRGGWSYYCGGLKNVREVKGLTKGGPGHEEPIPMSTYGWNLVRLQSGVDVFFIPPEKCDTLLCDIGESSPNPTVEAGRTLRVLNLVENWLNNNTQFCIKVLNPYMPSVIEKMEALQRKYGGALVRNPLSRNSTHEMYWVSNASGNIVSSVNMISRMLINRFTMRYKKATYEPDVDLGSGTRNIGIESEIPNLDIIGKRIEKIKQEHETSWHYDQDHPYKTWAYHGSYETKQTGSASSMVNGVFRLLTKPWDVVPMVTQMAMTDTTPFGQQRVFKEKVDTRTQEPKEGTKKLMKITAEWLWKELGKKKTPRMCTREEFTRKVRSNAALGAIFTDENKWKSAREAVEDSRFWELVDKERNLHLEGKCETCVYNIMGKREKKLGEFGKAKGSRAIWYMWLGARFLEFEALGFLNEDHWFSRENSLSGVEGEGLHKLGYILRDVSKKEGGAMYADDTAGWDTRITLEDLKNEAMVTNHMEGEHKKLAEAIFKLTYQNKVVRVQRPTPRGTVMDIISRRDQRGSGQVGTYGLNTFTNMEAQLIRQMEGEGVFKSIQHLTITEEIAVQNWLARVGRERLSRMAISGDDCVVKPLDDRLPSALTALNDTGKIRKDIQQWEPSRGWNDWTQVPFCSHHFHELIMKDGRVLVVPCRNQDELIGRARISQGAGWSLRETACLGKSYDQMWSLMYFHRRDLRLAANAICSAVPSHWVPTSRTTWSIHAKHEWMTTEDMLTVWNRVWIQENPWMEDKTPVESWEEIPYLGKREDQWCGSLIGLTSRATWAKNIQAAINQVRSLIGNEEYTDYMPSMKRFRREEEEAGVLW

[3] = target: T1, RNA-binding protein pos-1 (Caenorhabditis elegans, UniProt G5EF15); experiment: disruptors of C. elegans POS-1 RNA interaction – biochemical, fluorescence polarization, dose response (AID 1964);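 note: purified POS-1 fused to maltose binding protein made in E. coli; potency of compounds blocking POS-1 binding to fluorescent RNA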
T1 sequence (G5EF15 whole entry): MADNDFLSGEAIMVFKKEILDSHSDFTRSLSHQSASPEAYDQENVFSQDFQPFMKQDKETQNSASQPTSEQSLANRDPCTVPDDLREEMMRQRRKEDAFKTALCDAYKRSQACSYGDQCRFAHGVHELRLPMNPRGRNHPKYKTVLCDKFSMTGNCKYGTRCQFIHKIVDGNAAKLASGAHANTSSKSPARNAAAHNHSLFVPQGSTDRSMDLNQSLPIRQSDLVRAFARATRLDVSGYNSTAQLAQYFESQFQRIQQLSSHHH

Estrogen receptor = target: T2, Estrogen receptor (Homo sapiens, UniProt P03372);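 note: potency for inhibiting coactivator peptide recruitment to the receptor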
T2 sequence (P03372 whole entry): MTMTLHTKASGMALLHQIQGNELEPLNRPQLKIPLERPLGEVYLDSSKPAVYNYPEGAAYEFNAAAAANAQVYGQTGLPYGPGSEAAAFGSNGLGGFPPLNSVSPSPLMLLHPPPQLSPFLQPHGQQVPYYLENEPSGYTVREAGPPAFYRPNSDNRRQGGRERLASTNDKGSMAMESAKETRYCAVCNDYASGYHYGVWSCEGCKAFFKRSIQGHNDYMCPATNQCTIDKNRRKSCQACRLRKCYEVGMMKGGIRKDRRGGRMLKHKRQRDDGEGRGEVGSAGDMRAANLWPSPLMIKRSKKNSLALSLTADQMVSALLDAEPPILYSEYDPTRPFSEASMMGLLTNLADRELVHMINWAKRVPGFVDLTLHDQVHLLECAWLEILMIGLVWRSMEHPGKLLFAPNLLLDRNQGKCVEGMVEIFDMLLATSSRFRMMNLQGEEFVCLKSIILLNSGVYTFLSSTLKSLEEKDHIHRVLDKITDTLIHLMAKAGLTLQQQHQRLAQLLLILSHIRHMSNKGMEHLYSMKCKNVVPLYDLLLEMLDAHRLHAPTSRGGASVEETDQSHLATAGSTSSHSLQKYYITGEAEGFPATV

[4] = target: T3, Polyadenylate-binding protein 1 (Homo sapiens, UniProt P11940); experiment: MLLE binding blockers, Cy5 peptide tracer – biochemical, fluorescence polarization, Cy5-PAM2 peptide, secondary, miRNA deadenylation inhibitor project, dose response (AID 602260); type: functional; conditions: read-out: IC50_Mean
T3 sequence (P11940 whole entry): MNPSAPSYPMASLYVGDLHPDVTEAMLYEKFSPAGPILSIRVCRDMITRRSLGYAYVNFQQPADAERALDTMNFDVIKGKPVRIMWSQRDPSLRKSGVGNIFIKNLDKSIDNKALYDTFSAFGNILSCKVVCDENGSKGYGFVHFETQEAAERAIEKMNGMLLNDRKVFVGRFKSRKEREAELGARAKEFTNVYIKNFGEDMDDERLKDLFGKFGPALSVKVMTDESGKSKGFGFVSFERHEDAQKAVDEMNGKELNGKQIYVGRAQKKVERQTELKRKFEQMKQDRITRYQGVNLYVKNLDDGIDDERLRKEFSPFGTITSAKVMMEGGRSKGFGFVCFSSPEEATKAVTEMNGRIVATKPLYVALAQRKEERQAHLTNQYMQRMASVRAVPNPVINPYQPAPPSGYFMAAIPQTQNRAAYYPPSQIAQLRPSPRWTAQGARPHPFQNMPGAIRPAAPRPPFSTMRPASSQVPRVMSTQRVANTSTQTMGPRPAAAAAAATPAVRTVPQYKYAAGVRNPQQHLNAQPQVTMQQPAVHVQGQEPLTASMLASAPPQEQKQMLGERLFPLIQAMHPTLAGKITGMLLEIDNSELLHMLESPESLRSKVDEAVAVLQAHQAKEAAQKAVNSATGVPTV

[5] = target: T4, Zinc finger protein mex-5 (Caenorhabditis elegans, UniProt Q9XUB2); experiment: potency of MEX-5 RNA-binding blockers – biochemical, C. elegans, fluorescence polarization, dose response (AID 1960)
T4 sequence (Q9XUB2 whole entry): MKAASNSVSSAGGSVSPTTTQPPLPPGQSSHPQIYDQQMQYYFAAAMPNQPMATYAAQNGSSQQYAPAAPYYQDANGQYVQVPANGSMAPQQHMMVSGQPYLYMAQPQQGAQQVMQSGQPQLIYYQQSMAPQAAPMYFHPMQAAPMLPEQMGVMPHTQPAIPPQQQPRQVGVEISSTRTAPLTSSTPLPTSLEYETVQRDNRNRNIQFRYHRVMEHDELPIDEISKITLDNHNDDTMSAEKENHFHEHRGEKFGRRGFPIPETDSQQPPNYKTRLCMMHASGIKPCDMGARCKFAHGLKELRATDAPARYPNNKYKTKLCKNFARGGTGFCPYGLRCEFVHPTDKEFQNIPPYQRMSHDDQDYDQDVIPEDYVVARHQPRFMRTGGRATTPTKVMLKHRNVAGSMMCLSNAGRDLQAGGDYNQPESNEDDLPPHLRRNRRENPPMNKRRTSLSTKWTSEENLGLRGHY

[6] = target: T3, Polyadenylate-binding protein 1; experiment: MLLE domain peptide-binding blockers, IC50 – biochemical, fluorescence polarization, FITC-PAM2 peptide, dose response (AID 602259); type: functional; conditions: read-out: IC50_Mean
HT-1080 = experiment: HT1080 cell viability loss – fluorescence readout (AID 620); type: functional, cell-based; conditions: Homo sapiens
[7] = target: Luciferin 4-monooxygenase (Photinus pyralis, UniProt P08659); experiment: Counter Screen for Luciferase-based Assay Positives. [Related pubchem assays: 620, 618, 411 ]
Sequence of Luciferin 4-monooxygenase (P08659 whole entry): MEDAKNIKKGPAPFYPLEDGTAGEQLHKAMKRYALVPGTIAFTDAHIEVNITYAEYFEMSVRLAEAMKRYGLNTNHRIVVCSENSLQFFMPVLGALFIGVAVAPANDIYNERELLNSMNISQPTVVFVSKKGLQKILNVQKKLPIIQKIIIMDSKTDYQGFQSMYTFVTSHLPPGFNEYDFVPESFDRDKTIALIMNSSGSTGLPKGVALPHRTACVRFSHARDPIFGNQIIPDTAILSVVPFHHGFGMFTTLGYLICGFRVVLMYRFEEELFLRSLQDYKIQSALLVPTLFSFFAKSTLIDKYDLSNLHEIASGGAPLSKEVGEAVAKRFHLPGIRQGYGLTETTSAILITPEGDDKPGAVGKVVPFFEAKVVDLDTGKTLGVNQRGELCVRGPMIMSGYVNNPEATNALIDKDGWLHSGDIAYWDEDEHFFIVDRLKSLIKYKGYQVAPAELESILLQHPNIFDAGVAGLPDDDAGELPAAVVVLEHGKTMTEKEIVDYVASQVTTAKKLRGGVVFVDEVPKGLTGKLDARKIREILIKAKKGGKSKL

[8] = target: DNA dC->dU-editing enzyme APOBEC-3G (Homo sapiens, UniProt Q9HC16); experiment: Dose Response confirmation of small molecule APOBEC3G DNA Deaminase Inhibitors via a fluorescence-based single-stranded DNA deaminase assay. [Related pubchem assays (depositor defined):AID493012, AID493028]; type: functional
Sequence of DNA dC->dU-editing enzyme APOBEC-3G (Q9HC16 whole entry): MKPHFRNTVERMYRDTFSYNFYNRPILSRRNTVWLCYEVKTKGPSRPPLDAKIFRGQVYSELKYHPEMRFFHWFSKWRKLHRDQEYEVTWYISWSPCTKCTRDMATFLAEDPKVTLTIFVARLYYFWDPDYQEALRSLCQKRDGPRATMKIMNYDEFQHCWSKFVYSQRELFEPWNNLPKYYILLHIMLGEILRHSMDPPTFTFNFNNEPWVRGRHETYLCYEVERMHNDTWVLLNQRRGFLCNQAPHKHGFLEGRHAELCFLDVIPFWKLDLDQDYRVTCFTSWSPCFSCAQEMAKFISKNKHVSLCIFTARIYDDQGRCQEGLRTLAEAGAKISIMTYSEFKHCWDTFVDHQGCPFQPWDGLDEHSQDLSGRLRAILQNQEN

Cytochrome P450 3A4 = Cytochrome P450 3A4 (Homo sapiens, UniProt P08684); conditions: Potency;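 note: confirmatory qHTS run detecting inhibitors and substrates of CYP3A4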
Sequence of Cytochrome P450 3A4 (P08684 whole entry): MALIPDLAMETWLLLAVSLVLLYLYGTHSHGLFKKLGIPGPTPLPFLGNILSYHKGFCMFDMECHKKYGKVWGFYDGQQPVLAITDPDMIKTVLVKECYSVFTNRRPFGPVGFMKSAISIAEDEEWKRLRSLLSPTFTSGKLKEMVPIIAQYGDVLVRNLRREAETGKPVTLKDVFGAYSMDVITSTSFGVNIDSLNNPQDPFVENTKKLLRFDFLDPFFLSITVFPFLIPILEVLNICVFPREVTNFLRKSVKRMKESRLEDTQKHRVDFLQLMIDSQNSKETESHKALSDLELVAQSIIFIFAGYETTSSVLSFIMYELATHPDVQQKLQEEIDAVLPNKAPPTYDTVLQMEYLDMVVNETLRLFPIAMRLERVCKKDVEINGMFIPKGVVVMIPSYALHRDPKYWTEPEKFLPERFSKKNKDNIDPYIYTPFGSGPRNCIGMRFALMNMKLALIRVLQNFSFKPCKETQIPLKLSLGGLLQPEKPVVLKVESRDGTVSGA

[9] = test system: Streptococcus sp. 'group A'; experiment: Streptococcus pyogenes SK(-)GAS viability under kanamycin – luminescence, BacTiterGlo, confirmation, counter-screen for streptokinase expression inhibitor project, dose response (AID 1900); type: functional, organism-based
[10] = A Cell Based Secondary Assay To Explore Cytotoxicity of Compounds that Sensitize Mycobacterium Tuberculosis to Beta-Lactam Antibiotics.; type: functional
Streptokinase A = target: T5, Streptokinase A (Streptococcus pyogenes serotype M1, UniProt P10520); experiment: viability-normalized secreted streptokinase activity reduction – plasminogen activation absorbance, OD405, dose response (AID 1914); type: functional, Streptococcus pyogenes M1 GAS;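 note: secreted streptokinase activity via plasminogen activation per viability signal from cell pellet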
T5 sequence (P10520 whole entry): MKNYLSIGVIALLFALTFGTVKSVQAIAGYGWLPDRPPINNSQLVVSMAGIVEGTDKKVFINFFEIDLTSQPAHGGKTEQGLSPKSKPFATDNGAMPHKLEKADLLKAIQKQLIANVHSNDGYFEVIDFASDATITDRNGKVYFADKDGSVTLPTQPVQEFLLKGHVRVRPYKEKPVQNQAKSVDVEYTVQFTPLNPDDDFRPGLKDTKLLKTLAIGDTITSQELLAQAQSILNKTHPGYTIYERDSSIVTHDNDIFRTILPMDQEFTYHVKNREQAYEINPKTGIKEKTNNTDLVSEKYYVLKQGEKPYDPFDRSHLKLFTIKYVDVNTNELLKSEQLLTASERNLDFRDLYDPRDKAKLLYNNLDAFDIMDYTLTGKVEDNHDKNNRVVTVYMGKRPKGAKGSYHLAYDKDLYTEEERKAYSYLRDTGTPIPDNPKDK

Streptococcus = experiment: GAS UMAA2166 growth inhibition – luminescence, BacTiterGlo, counter-screen for streptokinase expression inhibitor project, dose response (AID 1915); type: functional, organism-based;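 note: potency for reduction of bacterial viability or growth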
[11] = viability of HCT116 lacking mutant beta-catenin – cell-based, human colon tumor, dose response (AID 1045); type: functional;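 note: HCT116 colon tumor cells with beta catenin knocked out; cells exposed to compound for 60 hours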
[12] = Trypanosoma cruzi growth suppression in host cells – NIH3T3 host cells, beta-gal luminescence, confirmation (AID 2044); type: functional, cell-based;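 note: intracellular parasites grown in NIH/3T3 mouse fibroblasts as host cells; luminescent beta-galactosidase reporter signal from transgenic T. cruzi replicating inside host cells; inhibitors lower the luminescence signal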
[13] = NIH3T3 cell viability loss – ATP luminescence, mouse fibroblasts, counter-screen, dose response (AID 2010); type: functional, cell-based;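 note: cells exposed to compound for about 90 hours before reading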
[14] = viability of PTEN-deleted HCT116 cells – cell-based, HCT116 PTEN knockout, dose response (AID 1047); type: functional;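 note: HCT116 colon tumor cells with PTEN knocked out; cells exposed to compound for 60 hours before readout; potency for loss of cell viability measured by luminescence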
Cytochrome P450 1A2 = target: T6, Cytochrome P450 1A2 (Homo sapiens, UniProt P05177);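 note: PubChem cytochrome P450 panel assay, CYP1A2 panel member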
T6 sequence (P05177 whole entry): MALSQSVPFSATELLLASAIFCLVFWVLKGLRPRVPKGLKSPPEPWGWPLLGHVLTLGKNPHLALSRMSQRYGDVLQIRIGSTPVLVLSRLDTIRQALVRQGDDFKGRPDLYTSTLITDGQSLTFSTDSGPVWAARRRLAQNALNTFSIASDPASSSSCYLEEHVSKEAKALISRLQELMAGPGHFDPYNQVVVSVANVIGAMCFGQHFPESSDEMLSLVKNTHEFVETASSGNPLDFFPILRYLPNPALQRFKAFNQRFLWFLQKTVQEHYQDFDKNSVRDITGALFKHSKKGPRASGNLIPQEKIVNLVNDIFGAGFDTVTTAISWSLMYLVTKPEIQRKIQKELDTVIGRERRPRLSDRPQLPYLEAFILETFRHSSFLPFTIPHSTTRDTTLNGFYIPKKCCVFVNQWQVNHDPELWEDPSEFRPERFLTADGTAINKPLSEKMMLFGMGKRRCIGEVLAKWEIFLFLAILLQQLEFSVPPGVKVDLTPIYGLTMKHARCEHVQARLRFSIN

## CCCc1nc2c(C)cc(-c3nc4ccccc4n3C)cc2n1Cc1ccc(-c2ccccc2C(=O)O)cc1
[1]
  IC50: > 80 µM (inactive)

## O=C(O)COc1ccc(-c2nccc(-c3ccccn3)n2)cc1
[1]
  IC50: > 80 µM (inactive)

## O=C(NCCO)c1ccc2nc(-c3ccco3)c(-c3ccco3)nc2c1
Estrogen receptor beta
  IC50: 11.4 µM (not active)
[2]
  IC50: < 400 nM (active)
Genome polyprotein
  IC50: 67.7 µM (active)
[3]
  EC50: > 300 µM (not active)
Estrogen receptor
  IC50: > 50 µM (not active)
[4]
  IC50: > 66 µM (inactive)
[5]
  EC50: 17.5 µM (active)
[6]
  IC50: > 66 µM (inactive)

## Cc1cccc(C(=O)N2CCN(C(=O)c3cccc(C)c3)C(C)C2)c1 (centres undefined)
HT-1080
  EC50: > 50 µM (not active)
[7]
  EC50: 10.6 µM (active)

## Brc1ccccc1-c1nc(-c2ccccc2)no1
HT-1080
  EC50: > 50 µM (not active)
[7]
  EC50: 5.42 µM (active)

## CCCC(C)c1nnc(NC(=O)CCS(=O)(=O)c2ccccc2)s1 (centres undefined)
[8]
  IC50: 32.2 µM (active)

## COc1cccc(C2C(C)CCC3C(=O)N(C)C(C(C)C)C(=O)N32)c1 (centres undefined)
Cytochrome P450 3A4
  AC50: 2 µM (inconclusive)

## COC(=O)C1OC(=O)C2O[C@@]23[C@]2(C)C(OC(C)=O)CC4C(C)(C)C(=O)CC[C@]4(C)C2CC[C@@]13C (some centres undefined)
Cytochrome P450 3A4
  AC50: 39.8 µM (inconclusive)

## CC(C)CCNC(=O)CCCOc1cc(=O)n(C)c2ccccc12
[1]
  IC50: > 80 µM (inactive)

## CC1(C)CN=C(Nc2nc3ccccc3s2)S1
[9]
  EC50: 15.3 µM (active)
[10]
  CC50: > 40 µM (active)
Streptokinase A
  EC50: > 150 µM (not active)
Streptococcus
  EC50: > 150 µM (not active)

## CC(C)(C)C(=O)N1CCc2cc(-c3csc(N)n3)ccc21
HT-1080
  EC50: > 50 µM (not active)
[7]
  EC50: 9.92 µM (active)

## Cc1nn(Cc2ccc(Cl)cc2)c(C)c1NC(=O)CSc1nc2c(c(C(F)(F)F)n1)CCc1ccccc1-2
[11]
  EC50: 14 µM (active)
[10]
  CC50: 29 µM (active)
[12]
  EC50: 1.72 µM (active)
[13]
  EC50: > 60 µM (not active)
[14]
  EC50: 12.8 µM (active)

## O=C(CN(Cc1ccco1)C(=O)c1cccc(Cl)c1)Nc1c(Cl)cc(Cl)cc1Cl
[10]
  CC50: 24 µM (active)
Cytochrome P450 1A2
  AC50: 12.6 µM (inconclusive)

## CC(C)CC(C)Nc1ccc(Nc2ccccc2)cc1 (centres undefined)
Cytochrome P450 3A4
  AC50: 25.1 µM (inconclusive)

## CC(C)(C)c1ccc(OCC(O)CSc2nnc[nH]2)cc1 (centres undefined)
[7]
  EC50: 1.29 µM (active)

## CC(=O)OCC1=C(C(=O)O)N2C(=O)C(NC(=O)Cc3cccs3)C2SC1 (centres undefined)
Cytochrome P450 3A4
  AC50: 31.6 µM (inconclusive)

Source: ChEMBL document CHEMBL1201862, “PubChem BioAssay data set” (2004)
